Reference: article PMC10046369, “Low-Affinity/High-Selectivity Dopamine Transport Inhibition Sufficient to Rescue Cognitive Functions in the Aging Rat” (Biomolecules, 2023)

Key:
Assay in all cases: biochemical
Parameters in all cases: KINOMEscan competition binding panel, per cent of control
Details in all cases: read-out: %Ctrl @ 2800nM
[1] = target: T1, ABL1-phosphorylated (Homo sapiens, UniProt P00519)
T1 construct: phosphorylated
Method in brief: (§1)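 Competition binding panel (KINOMEscan) across 450 human kinases and disease-relevant mutants, run to the contractor's standard protocol. Values are % control: (test signal − positive control signal)/(negative control signal − positive control signal) × 100, with lower values indicating stronger binding.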

[2] = target: ABL2 (Homo sapiens, UniProt P42684)
Method in brief: as §1

[3] = target: T2, AMPK-alpha2 (Homo sapiens, UniProt P54646)
T2 construct: gene PRKAA2
Method in brief: as §1

[4] = target: AURKC (Homo sapiens, UniProt Q9UQB9)
Method in brief: as §1

[5] = target: BMX (Homo sapiens, UniProt P51813)
Method in brief: as §1

[6] = target: BTK (Homo sapiens, UniProt Q06187)
Method in brief: as §1

[7] = target: CDK5 (Homo sapiens, UniProt Q00535)
Method in brief: as §1

[8] = target: CDKL1 (Homo sapiens, UniProt Q00532)
Method in brief: as §1

[9] = target: CSF1R-autoinhibited (Homo sapiens, UniProt P07333)
Method in brief: as §1

[10] = target: CSNK1D (Homo sapiens, UniProt P48730)
Method in brief: as §1

[11] = target: T3, DRAK1 (Homo sapiens, UniProt Q9UEE5)
T3 construct: gene STK17A
Method in brief: as §1

[12] = target: EPHA1 (Homo sapiens, UniProt P21709)
Method in brief: as §1

[13] = target: FLT3-autoinhibited (Homo sapiens, UniProt P36888)
Method in brief: as §1

[14] = target: FLT4 (Homo sapiens, UniProt P35916)
Method in brief: as §1

[15] = target: GAK (Homo sapiens, UniProt O14976)
Method in brief: as §1

[16] = target: GRK1 (Homo sapiens, UniProt Q15835)
Method in brief: as §1

[17] = target: GRK3 (Homo sapiens, UniProt P35626)
Method in brief: as §1

[18] = target: T4, LOK (Homo sapiens, UniProt O94804)
T4 construct: gene STK10
Method in brief: as §1

[19] = target: LRRK2 (Homo sapiens, UniProt Q5S007)
Method in brief: as §1

[20] = target: MAK (Homo sapiens, UniProt P20794)
Method in brief: as §1

[21] = target: T5, MST2 (Homo sapiens, UniProt Q13188)
T5 construct: gene STK3
Method in brief: as §1

[22] = target: NEK5 (Homo sapiens, UniProt Q6P3R8)
Method in brief: as §1

[23] = target: PIKFYVE (Homo sapiens, UniProt Q9Y2I7)
Method in brief: as §1

[24] = target: ROCK1 (Homo sapiens, UniProt Q13464)
Method in brief: as §1

[25] = target: ROS1 (Homo sapiens, UniProt P08922)
Method in brief: as §1

[26] = target: STK36 (Homo sapiens, UniProt Q9NRP7)
Method in brief: as §1

[27] = target: TEC (Homo sapiens, UniProt P42680)
Method in brief: as §1

Chain of PIKFYVE (Q9Y2I7 whole entry): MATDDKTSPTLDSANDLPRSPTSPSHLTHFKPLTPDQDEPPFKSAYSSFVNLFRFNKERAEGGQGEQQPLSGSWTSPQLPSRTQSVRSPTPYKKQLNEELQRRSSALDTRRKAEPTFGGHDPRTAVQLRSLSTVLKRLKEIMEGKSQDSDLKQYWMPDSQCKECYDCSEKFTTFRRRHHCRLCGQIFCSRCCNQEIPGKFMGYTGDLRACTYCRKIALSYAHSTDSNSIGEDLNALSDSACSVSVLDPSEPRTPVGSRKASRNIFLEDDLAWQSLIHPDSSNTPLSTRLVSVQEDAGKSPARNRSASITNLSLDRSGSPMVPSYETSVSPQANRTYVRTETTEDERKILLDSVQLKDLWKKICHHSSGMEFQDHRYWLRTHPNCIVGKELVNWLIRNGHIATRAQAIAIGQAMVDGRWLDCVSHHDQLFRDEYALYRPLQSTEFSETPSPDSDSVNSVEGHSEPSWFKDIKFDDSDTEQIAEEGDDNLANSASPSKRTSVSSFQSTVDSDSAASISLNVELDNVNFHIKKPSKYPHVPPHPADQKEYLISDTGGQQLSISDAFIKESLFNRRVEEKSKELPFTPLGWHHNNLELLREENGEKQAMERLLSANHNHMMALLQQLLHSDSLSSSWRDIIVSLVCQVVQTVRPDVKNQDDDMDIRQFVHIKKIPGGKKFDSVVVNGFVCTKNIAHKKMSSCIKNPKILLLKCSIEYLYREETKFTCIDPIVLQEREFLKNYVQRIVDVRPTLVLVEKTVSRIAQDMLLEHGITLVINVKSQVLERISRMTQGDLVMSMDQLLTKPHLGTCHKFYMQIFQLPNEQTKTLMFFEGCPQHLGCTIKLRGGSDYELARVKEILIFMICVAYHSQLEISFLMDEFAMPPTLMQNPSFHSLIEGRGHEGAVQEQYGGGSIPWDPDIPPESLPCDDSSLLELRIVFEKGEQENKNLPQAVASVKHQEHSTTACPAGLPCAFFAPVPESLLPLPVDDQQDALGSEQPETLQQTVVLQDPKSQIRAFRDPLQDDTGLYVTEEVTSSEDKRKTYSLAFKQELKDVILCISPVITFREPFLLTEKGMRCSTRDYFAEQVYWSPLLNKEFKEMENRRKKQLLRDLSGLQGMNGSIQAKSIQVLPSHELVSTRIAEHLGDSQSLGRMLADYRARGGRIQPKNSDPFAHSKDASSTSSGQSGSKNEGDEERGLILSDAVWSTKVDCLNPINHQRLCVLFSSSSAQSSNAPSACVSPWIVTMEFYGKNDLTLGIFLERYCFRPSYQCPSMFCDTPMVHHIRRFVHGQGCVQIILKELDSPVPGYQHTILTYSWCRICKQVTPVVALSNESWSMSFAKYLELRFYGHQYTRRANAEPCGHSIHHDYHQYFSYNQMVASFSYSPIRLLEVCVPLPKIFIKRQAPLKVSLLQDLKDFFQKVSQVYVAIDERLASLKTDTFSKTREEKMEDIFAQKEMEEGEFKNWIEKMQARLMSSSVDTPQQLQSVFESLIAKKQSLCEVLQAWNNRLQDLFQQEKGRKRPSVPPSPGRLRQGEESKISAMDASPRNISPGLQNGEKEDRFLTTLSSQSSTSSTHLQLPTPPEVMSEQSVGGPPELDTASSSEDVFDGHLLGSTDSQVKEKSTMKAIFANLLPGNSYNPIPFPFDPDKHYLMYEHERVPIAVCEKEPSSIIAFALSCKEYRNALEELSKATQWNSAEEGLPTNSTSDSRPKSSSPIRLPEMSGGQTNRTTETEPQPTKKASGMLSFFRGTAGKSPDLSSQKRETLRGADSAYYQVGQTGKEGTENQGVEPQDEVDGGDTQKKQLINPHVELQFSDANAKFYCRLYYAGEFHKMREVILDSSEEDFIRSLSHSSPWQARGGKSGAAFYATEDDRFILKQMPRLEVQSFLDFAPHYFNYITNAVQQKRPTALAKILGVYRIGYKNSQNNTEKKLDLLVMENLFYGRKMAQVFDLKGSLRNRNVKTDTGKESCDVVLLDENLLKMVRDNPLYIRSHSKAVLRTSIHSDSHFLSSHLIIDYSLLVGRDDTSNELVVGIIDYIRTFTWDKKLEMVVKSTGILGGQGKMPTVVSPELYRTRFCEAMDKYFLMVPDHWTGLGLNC
T5 sequence (Q13188 whole entry): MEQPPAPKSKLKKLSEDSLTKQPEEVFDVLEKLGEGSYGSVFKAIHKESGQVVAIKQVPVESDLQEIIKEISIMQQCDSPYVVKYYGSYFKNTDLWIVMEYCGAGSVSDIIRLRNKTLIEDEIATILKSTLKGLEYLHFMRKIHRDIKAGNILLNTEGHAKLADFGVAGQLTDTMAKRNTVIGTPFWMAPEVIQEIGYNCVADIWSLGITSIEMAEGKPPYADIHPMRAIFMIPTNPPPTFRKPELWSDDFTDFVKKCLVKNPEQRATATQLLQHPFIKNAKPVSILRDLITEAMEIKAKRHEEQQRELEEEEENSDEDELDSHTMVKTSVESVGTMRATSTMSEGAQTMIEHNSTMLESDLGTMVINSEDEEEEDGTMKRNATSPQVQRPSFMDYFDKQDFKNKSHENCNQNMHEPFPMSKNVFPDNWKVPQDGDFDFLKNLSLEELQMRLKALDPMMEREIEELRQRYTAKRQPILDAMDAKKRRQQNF
Chain of STK36 (Q9NRP7 whole entry): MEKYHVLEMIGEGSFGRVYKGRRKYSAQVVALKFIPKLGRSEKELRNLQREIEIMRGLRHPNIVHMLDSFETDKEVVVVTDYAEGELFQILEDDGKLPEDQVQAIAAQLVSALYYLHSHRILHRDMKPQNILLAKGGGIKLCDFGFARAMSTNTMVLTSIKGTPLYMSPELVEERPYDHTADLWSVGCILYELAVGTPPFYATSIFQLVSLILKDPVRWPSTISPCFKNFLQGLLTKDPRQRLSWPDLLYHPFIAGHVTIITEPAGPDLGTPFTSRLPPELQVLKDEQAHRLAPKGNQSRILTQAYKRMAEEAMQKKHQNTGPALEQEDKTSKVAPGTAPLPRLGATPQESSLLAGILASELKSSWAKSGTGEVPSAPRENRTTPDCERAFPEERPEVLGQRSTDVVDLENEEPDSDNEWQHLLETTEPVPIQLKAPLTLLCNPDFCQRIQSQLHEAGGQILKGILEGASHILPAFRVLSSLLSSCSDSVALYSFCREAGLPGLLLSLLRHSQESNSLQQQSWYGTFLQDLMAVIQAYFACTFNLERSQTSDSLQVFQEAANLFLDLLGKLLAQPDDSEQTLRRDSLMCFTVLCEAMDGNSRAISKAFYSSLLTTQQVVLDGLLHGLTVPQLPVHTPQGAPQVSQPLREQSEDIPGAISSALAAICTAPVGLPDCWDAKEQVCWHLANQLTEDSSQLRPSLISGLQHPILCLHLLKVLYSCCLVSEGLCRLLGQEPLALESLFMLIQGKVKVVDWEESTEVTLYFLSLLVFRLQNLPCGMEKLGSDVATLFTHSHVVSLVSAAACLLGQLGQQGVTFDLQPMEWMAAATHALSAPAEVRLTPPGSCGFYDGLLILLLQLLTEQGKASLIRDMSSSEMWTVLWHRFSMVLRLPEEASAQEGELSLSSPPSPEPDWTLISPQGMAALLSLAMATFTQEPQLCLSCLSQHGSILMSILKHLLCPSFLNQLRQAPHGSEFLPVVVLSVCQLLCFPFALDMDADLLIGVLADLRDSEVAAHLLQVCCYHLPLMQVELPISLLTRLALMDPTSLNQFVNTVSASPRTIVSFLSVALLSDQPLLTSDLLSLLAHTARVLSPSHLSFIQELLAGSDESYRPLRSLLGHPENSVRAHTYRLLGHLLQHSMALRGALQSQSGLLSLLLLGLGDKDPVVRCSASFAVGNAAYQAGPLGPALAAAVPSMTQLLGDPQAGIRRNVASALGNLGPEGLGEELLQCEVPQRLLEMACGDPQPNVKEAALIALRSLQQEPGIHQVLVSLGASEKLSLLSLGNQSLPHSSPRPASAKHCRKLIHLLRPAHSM
Chain of BMX (P51813 whole entry): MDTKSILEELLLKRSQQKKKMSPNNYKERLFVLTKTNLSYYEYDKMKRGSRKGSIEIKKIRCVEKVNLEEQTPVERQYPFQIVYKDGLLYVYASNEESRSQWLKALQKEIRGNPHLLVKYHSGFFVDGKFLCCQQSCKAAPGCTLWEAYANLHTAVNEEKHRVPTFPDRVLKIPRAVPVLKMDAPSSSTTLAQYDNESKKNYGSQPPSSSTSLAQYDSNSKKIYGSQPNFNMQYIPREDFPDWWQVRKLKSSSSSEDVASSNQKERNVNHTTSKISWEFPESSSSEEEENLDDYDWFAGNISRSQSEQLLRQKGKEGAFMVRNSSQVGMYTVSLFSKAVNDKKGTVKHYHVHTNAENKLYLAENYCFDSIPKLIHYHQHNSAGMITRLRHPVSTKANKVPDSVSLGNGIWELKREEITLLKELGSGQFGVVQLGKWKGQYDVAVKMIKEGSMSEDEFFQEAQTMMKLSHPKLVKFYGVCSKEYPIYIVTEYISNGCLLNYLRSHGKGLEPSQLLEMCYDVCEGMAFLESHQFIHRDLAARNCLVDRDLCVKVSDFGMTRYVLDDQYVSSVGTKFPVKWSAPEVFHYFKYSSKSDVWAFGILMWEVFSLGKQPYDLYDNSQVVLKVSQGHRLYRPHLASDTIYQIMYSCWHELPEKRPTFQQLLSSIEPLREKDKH
Chain of CDK5 (Q00535 whole entry): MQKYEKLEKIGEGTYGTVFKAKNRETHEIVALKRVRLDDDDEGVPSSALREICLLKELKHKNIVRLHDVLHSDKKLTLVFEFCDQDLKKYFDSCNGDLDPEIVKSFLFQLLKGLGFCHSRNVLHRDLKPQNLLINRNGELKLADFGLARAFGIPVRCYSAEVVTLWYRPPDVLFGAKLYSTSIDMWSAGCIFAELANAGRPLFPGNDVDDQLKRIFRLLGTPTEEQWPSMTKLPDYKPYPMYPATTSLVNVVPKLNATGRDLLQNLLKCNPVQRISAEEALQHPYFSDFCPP

## [O-][S@@+](Cc1cncs1)C(c1ccccc1)c1ccccc1 [S-CE-123, (S)-5-((Benzhydrylsulfinyl)Methyl)Thiazole]
[1]
  remaining binding at 2.8 µM: 100%
[2]
  remaining binding at 2.8 µM: 99%
[3]
  remaining binding at 2.8 µM: 97%
[4]
  remaining binding at 2.8 µM: 100%
[5]
  remaining binding at 2.8 µM: 57%
[6]
  remaining binding at 2.8 µM: 100%
[7]
  remaining binding at 2.8 µM: 97%
[8]
  remaining binding at 2.8 µM: 100%
[9]
  remaining binding at 2.8 µM: 100%
[10]
  remaining binding at 2.8 µM: 100%
[11]
  remaining binding at 2.8 µM: 95%
[12]
  remaining binding at 2.8 µM: 96%
[13]
  remaining binding at 2.8 µM: 99%
[14]
  remaining binding at 2.8 µM: 100%
[15]
  remaining binding at 2.8 µM: 100%
[16]
  remaining binding at 2.8 µM: 100%
[17]
  remaining binding at 2.8 µM: 100%
[18]
  remaining binding at 2.8 µM: 95%
[19]
  remaining binding at 2.8 µM: 100%
[20]
  remaining binding at 2.8 µM: 94%
[21]
  remaining binding at 2.8 µM: 80%
[22]
  remaining binding at 2.8 µM: 90%
[23]
  remaining binding at 2.8 µM: 100%
[24]
  remaining binding at 2.8 µM: 100%
[25]
  remaining binding at 2.8 µM: 91%
[26]
  remaining binding at 2.8 µM: 88%
[27]
  remaining binding at 2.8 µM: 100%
